{
  "source": "patent US20240189442A1",
  "about": "“TARGETING CONJUGATES WITH THERAPEUTIC AGENTS AND OLIGONUCLEOTIDES AND USES THEREOF” (Allygen Group, priority 2021, published 2024)",
  "key": {"[1]": {"biological_target": "Urokinase-type Plasminogen Activator (uPA) (Homo sapiens, UniProt P00749)", "assay": "uPA cleavage of substrate peptides measured by FRET", "assay_type": "biochemical", "conditions": "uPA 7.5 × 10^−3 mg/mL, peptide 0.5 mg/mL, PBS pH=7.4", "experimental": "(§1) All peptide solutions were finally diluted to 50 μL with 20 mM PBS at pH=7.4."}, "antibody Ab2B": {"tested_on": "antibody Ab2B", "sequence (as listed by the source)": "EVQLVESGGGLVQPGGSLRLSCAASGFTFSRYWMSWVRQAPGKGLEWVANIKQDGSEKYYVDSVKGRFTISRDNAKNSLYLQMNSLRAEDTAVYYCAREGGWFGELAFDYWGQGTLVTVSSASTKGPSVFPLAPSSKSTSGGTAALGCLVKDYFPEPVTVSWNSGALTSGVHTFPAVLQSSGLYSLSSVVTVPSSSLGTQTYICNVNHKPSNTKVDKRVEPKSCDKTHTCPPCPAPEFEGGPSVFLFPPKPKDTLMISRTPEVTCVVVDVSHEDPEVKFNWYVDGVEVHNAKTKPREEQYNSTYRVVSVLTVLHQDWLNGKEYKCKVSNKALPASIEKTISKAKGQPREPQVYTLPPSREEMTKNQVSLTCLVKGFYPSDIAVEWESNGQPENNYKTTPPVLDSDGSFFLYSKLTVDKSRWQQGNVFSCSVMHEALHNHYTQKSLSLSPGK", "sequence (as listed by the source partner)": "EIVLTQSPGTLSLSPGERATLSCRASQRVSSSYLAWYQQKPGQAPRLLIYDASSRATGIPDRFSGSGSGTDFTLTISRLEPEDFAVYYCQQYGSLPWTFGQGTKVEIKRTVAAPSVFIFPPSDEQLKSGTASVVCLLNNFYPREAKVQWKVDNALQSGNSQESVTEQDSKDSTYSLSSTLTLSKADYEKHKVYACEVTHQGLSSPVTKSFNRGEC", "assay": "Biacore affinities between TBP and antibody", "assay_type": "binding", "experimental": "Anti-human Fab was ligated to Biacore chips at pH 4.5. […] TBPs were flowed through the chip as analytes at 30 μL/min. 10 mM glycine at pH 1.5 was used for regeneration of the chip. Conditions were optimized as needed."}, "[2]": {"assay": "Stability of SN-38 (lactone / ring-opened form) at different pH", "assay_type": "physicochemical", "experimental": "A hydrochloric acid solution with a pH of 4 and a sodium hydroxide solution with a pH of 10 were prepared respectively. 5 mg of SN-38 was dissolved in 5 mL of acetonitrile. The stability of SN-38 in a solution of changing pH (pH=10 to pH=4) was measured by shaking SN-38 at room temperature under pH=10 for 10 min, then adjusting the pH back to 4 and shake at room temperature for 10 min before sampling. SN-38 was then incubated at room temperature overnight (16 h) on a shaker and assayed afterwards."}, "HCT15-hPDL1 cells": {"tested_on": "HCT15-hPDL1 cells", "assay": "In vitro cytotoxicity study, CellTiter-Glo Luminescent Cell Viability Assay", "assay_type": "cell-based, Human", "conditions": "5 days exposure", "experimental": "The cell line was named as HCT15-hPDL1. Cells were cultured at 37° C. with 5% C02 using RPMI1640 medium supplemented with 10% FBS, plus 1 μg/ml of puromycin.\nThe in vitro anti-tumor activity was determined by CellTiter-Glo® Luminescent Cell Viability Assay (Promega) according to the manufacturer's instructions. Briefly, cells were seeded into 96-well plates at 2×10^3 cells per well in 100 μL complete medium, then incubated at 37° C. with 5% CO2 overnight. Untreated cells served as control. ADCs, antibodies, or payloads in 100 μL medium were added in duplicate at various concentrations with a 2-fold dilution series starting with concentrations of 1 uM, respectively. Cells were exposed to test articles for 5 days. […]. The cell survival rate (%) was calculated using the following formula: sample/control×100%."}, "[3]": {"biological_target": "Tissue-type Plasminogen Activator (tPA) (Homo sapiens, UniProt P00750)", "sequence (P00750 36-562, species assumed)": "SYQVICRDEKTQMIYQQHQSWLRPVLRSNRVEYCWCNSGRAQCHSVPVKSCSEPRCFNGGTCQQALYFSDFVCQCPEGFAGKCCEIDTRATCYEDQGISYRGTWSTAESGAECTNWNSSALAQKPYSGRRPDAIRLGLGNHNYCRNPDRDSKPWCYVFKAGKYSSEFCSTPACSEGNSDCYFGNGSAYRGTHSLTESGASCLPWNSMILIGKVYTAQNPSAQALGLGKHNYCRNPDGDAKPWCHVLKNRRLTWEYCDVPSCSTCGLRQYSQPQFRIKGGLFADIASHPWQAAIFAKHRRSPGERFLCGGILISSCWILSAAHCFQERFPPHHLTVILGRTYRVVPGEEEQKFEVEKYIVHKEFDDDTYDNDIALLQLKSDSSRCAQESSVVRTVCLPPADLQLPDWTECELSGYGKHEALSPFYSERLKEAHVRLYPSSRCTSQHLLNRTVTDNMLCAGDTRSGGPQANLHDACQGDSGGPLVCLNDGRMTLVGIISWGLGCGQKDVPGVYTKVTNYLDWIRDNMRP", "assay": "tPA digestion of substrate peptides measured by FRET", "assay_type": "biochemical", "experimental": "as §1"}, "CathepsinB": {"biological_target": "CathepsinB (Homo sapiens, UniProt P07858)", "assay": "Digestion of the drug-linkers by CathepsinB", "assay_type": "biochemical", "conditions": "125 nM enzyme, 62.5 μM drug-linker, pH 5.5, 37° C., 3 hours", "experimental": "To simulate the release of drug under physiological conditions, the drug-linkers were subjected to cleavage by CathepsinB, after which an elimination reaction occurred and unmodified drug was released.\nLyophilized CathepsinB enzyme powder was dissolved in 130 μL of pure water, and divided into 13 tubes of 10 μL each. At this time, the concentration of each tube was 0.15 mg/ml (4.15 μM). Activation buffer (20 mM sodium acetate, 30 mM DTT, 15 mM EDTA, pH 5.5) was then added to a tube of enzyme to activate the enzyme for 1 hour at room temperature. The activated enzyme was diluted to 125 nM with enzyme digestion buffer (25 mM sodium acetate, 1 mM EDTA, pH 5.5). Drug-linkers were added to the activated enzyme to a final concentration of 62.5 μM, and incubated at 37° C. for 3 hours."}, "[4]": {"assay": "Stability of Compound of Formula (1) and (2) in buffer", "assay_type": "physicochemical", "experimental": "Preparation of 20 mM phosphate buffer with pH=7.4 (in 1 L): 8.0 g sodium chloride, 0.2 g potassium chloride, 7.3 g disodium hydrogen phosphate dodecahydrate, and 0.48 g potassium dihydrogen phosphate was dissolved in water and dilute to 1 L at pH 7.4.\nThe buffer was adjusted to pH 9.0, 7.0 and 5.0 with saturated phosphoric acid solution and sodium hydroxide solution. […] The solution pH was adjusted back to 5, and shaken overnight at room temperature (16 h) before testing."}, "[5]": {"assay": "Stability of Compound of Formula (1) and (2) in plasma", "assay_type": "in vitro ADME", "conditions": "pH 7.4, 0.5 mg/mL", "experimental": "Preparation of protein precipitation solution: 1 g NaCl was added to 3 mL methanol and 5 mL acetonitrile, stirred for 1 h, and then allowed to stand at room temperature for 1 h before use.\n200 μL protein precipitation solution was then added to the reaction solution and centrifuged at 8000 g for 10 min. The supernatant was collected for analysis."}, "[6]": {"biological_target": "T1, TLR9 (HEK-Blue hTLR9-hPDL1 cells) (Homo sapiens, UniProt Q9NR96)", "T1 construct": "expressed in transfected cells; host or cells: HEK-Blue hTLR9-hPDL1 (HEK-Blue hTLR9 cells carrying lentiviral human PD-L1, NM_014143)", "T1 sequence (Q9NR96 26-1032)": "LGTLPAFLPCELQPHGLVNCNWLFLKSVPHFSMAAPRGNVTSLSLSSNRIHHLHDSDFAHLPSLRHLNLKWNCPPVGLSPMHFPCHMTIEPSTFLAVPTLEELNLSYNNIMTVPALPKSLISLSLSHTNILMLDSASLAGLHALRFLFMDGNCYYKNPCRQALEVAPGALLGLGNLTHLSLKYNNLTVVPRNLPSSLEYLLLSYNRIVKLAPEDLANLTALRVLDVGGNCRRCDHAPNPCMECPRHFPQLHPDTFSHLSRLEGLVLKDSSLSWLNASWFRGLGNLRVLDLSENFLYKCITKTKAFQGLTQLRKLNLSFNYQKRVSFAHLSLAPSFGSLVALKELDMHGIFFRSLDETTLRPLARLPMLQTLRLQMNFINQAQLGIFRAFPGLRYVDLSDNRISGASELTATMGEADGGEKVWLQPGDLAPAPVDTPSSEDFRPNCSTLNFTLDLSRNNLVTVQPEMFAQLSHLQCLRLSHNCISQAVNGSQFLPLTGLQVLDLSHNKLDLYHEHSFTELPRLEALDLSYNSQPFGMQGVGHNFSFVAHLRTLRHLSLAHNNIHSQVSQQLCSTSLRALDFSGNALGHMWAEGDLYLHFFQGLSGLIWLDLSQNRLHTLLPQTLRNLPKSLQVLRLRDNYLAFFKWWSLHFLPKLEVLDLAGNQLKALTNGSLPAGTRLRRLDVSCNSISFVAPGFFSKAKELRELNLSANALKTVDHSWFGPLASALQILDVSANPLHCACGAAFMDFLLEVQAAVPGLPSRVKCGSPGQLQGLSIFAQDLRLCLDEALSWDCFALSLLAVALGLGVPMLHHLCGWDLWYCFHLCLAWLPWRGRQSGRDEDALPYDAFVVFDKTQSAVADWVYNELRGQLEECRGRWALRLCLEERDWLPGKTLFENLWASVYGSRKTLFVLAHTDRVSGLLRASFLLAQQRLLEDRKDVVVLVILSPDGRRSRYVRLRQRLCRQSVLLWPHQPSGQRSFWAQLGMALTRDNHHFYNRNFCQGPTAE", "assay": "In vitro TLR9 activation study, SEAP reporter", "assay_type": "cell-based", "conditions": "18 hr incubation, OD 655 nm; read-out: HEK-Blue hTLR9-hPDL1 cell EC50", "excerpt": "Data were normalized with untreated cells as zero."}, "[7]": {"conditions": "alkaline conditions for 10 minutes, then acidic conditions before testing"}, "[8]": {"conditions": "pH 10 to pH 4, after incubation overnight (16 h)"}},
  "note": "Non-standard residues stand in square brackets, D forms with d. Primed or numbered codes have the meaning given here. No end group written: not given here. PEG12′ = NH2-(PEG)12 moiety",
  "data": [
    {"molecule": "LSGRSDNH [SEQ ID NO: 50]", "values": [
      {"measurement": "Fluorescence Intensity Time to Reach Plateau", "setting": "[1]", "result": 1.7, "unit": "h"}
    ]},
    {"molecule": "SEQ ID NO: 151 ([PEG12′]RSQSRSRYYRQRQRSRRRRRRS)", "values": [
      {"measurement": "Binding to Ab2B (in words)", "setting": "antibody Ab2B", "result": "did not bind to Ab2B"}
    ]},
    {"molecule": "CCc1c2c(nc3ccc(O)cc13)-c1cc3c(c(=O)n1C2)COC(=O)[C@]3(O)CC", "note": "[SN38, 7-ethyl-10-hydroxy-20(S)-camptothecin]", "values": [
      {"measurement": "Present as lactone", "setting": "[2]; acidic conditions (pH 4)", "result": 94, "unit": "%"},
      {"measurement": "Present as lactone ring-opened form", "setting": "[2]; alkaline conditions (pH 10)", "result": 92, "unit": "%"},
      {"measurement": "Lactone ring-opening products", "setting": "[2]; [7]", "result": 42, "unit": "%"},
      {"measurement": "Present in the form of lactone", "setting": "[2]; [7]", "result": 56, "unit": "%"},
      {"measurement": "Lactone ring-opening products", "setting": "[2]; [8]", "result": 13, "unit": "%"},
      {"measurement": "Present in the form of lactone", "setting": "[2]; [8]", "result": 86, "unit": "%"},
      {"measurement": "IC50", "setting": "HCT15-hPDL1 cells; Homo sapiens, 120 h", "result": 11.2, "unit": "nM"}
    ]},
    {"molecule": "SGRSA [SEQ ID NO: 51]", "values": [
      {"measurement": "Fluorescence Intensity Time to Reach Plateau", "setting": "[1]", "result": 1.8, "unit": "h"},
      {"measurement": "tPA digestion (in words)", "setting": "[3]; tPA 7.5×10^−3 mg/mL", "result": "mildly digested"},
      {"measurement": "tPA digestion (in words)", "setting": "[3]; tPA […]10^−2 mg/mL", "result": "digested"}
    ]},
    {"molecule": "GSGRNAQV [SEQ ID NO: 54, uPA substrate peptide]", "values": [
      {"measurement": "Fluorescence Intensity Time to Reach Plateau", "setting": "[1]", "result": 1.4, "unit": "h"},
      {"measurement": "tPA digestion (in words)", "setting": "[3]; tPA […]10^−2 mg/mL", "result": "digested"}
    ]},
    {"molecule": "Glycine3-amido-PEG8-VC-PAB-DMAE-phenol linked SN38 [Compound of Formula (1)]", "values": [
      {"measurement": "CathepsinB digestion (in words)", "setting": "CathepsinB", "result": "effectively digested"},
      {"measurement": "Product released on CathepsinB digestion", "setting": "CathepsinB", "result": "release SN38"},
      {"measurement": "Present in the form of lactones", "setting": "[4]; acidic conditions (pH 5 buffer)", "result": 88, "unit": "%"},
      {"measurement": "Present as lactones in the form of ring opening", "setting": "[4]; alkaline conditions (pH 9 buffer)", "result": 92, "unit": "%"},
      {"measurement": "Present in the form of lactones", "setting": "[4]; alkaline conditions for 10 minutes, then acidic conditions (pH 9 to 5)", "result": 98, "unit": "%"},
      {"measurement": "Stability in plasma (in words)", "setting": "[5]", "result": "partially hydrolyzed in plasma"},
      {"measurement": "IC50", "setting": "HCT15-hPDL1 cells", "result": "> 300", "unit": "nM"}
    ]},
    {"molecule": "LGGSGRSANAILE [SEQ ID NO: 52, uPA substrate peptide]", "values": [
      {"measurement": "Fluorescence Intensity Time to Reach Plateau", "setting": "[1]", "result": 1.4, "unit": "h"},
      {"measurement": "tPA digestion (in words)", "setting": "[3]; tPA 7.5×10^−3 mg/mL", "result": "mildly digested"},
      {"measurement": "tPA digestion (in words)", "setting": "[3]; tPA […]10^−2 mg/mL", "result": "digested"}
    ]},
    {"molecule": "CCc1c2c(nc3ccc(O)cc13)-c1cc3c(c(=O)n1C2)COC(=O)[C@@]3(CC)OC(=O)N(C)CCN(C)C(=O)OCc1ccc(NC(=O)[C@H](CCCNC(N)=O)NC(=O)[C@@H](NC(=O)CCOCCOCCOCCOCCOCCOCCOCCOCCCNC(=O)CNC(=O)CNC(=O)CN)C(C)C)cc1", "note": "[Compound of Formula (2), Glycine3-amido-PEG8-VC-PAB-DMAE-α-hydroxy lactone linked SN38]", "values": [
      {"measurement": "CathepsinB digestion (in words)", "setting": "CathepsinB", "result": "effectively digested"},
      {"measurement": "Product released on CathepsinB digestion", "setting": "CathepsinB", "result": "release SN38 derivatives"},
      {"measurement": "Present in the form of lactones in buffer", "setting": "[4]; buffer, less affected by pH", "result": 98, "unit": "%"},
      {"measurement": "Stability in plasma (in words)", "setting": "[5]", "result": "mainly in the form of lactones in the plasma"},
      {"measurement": "IC50", "setting": "HCT15-hPDL1 cells; Homo sapiens, 120 h", "result": 38.1, "unit": "nM"}
    ]},
    {"molecule": "CpGB: CpG ODN CpGB, used as positive control and as component of Ab3A ADOC (DNA TCGAACGTTCGAACGTTCGAACGTTCGAAT; DNA, all phosphorothioate, methylation of C not given here)", "values": [
      {"measurement": "EC50", "setting": "[6]", "result": 11500, "unit": "nM"}
    ]},
    {"molecule": "LGGSGRNAQVRLE [SEQ ID NO: 53, uPA substrate peptide]", "values": [
      {"measurement": "Fluorescence Intensity Time to Reach Plateau", "setting": "[1]", "result": 1.6, "unit": "h"}
    ]}
  ]
}
